In the data set the target is T1, CYP1A2 (Homo sapiens, UniProt P05177).
T1 sequence (P05177 1-516): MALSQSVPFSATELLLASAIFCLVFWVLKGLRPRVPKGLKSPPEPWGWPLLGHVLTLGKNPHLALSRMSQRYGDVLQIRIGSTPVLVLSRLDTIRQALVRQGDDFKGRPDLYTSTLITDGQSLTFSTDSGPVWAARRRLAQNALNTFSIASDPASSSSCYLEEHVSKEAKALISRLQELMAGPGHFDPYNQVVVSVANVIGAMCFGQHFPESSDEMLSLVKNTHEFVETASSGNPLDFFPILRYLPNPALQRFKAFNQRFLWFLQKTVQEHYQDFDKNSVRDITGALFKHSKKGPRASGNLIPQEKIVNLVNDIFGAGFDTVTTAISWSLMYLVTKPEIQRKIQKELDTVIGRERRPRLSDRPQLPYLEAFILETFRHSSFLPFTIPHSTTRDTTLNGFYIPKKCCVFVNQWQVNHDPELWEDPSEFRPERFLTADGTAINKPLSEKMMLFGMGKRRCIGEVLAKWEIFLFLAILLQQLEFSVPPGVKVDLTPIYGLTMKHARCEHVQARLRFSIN
As to the kind of experiment: in vitro. It counts as biochemical. Conditions: for inhibitory activity to CYP1A2 (10% or greater inhibition at 1 μM): 1 μM test concentration.

Setting [1] is: recombinant enzyme, pH 7.4, 1 μM active ingredient, Rh CYP1A2-mediated phenacetin O-deethylation, test dataset of 202 herb ingredients, read-out: % of Control Indication Activity (Mean).
Setting [2] is: human, recombinant human CYP1A2, pH 7.4, probe phenacetin (25 μM), O-deethylation to acetaminophen, 1 μM active ingredient, Rh CYP1A2-mediated phenacetin O-deethylation, test dataset of 202 herb ingredients, read-out: % of Control Indication Activity (Mean).
Where [3] appears, read: human, recombinant enzyme, pH 7.4.
[4] abbreviates: 1 μM active ingredient, Rh CYP1A2-mediated phenacetin O-deethylation, test dataset of 202 herb ingredients.
Setting [5] is: human, recombinant human CYP1A2, pH 7.4, probe phenacetin (25 μM), O-deethylation to acetaminophen, 1 μM test compound, 25 μM phenacetin, average of duplicate determinations, read-out: % of Control Indication Activity.

Entries after “also recorded” stand apart in the source; their conditions may differ. Where a name gives a salt, the structure may show the parent alone. Read-outs that look alike come from different tables or passages of the source.
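Also: recombinant CYP1A2 incubated for 1 h at 37 °C, with the reaction started by an NADPH-generating system.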

Protocol: A total of 18 candidate compounds selected by pharmacophore and docking were examined for their potential to inhibit rhCYP1A2 phenacetin O-deethylation activity at a test concentration of 1 μM.
The basic incubation medium contained 100 mM potassium phosphate buffer (PH 7.4), 50 pmol recombinant human CYP1A2, 25 μM phenacetin and 1 μM active ingredients. The final incubation volume was 200 μL. After 5 min pre-incubation at 37 °C, the reaction was initiated by the addition of NADPH-generating system (5 mM MgCl2, 10 mM glucose 6-phosphates, 1 mM NADPH, and 2.5 U per mL glucose 6-phosphate dehydrogenase). Incubations were performed in a 37 °C shaking water bath for 1 h. Reactions were stopped by adding 0.4 mL of ice-cold acetonitrile containing 0.2 mg/L tinidazole (IS). […] The column was maintained at 35 °C and the injection volume was 10 μL.

As for `C[C@]12CC[C@H](O)C[C@H]1CC[C@@H]1[C@@H]2CC[C@]2(C)[C@@H](c3ccc(=O)oc3)C[C@H]3O[C@]132` [Resibufogenin], under setting [1], the activity at 1 h, 1 μM is greater than 90%.

With `O=C(O)c1cc(O)c2c(c1)C(=O)c1cccc(O)c1C2=O` [Rhein], the activity at 1 h, 1 μM under setting [2] was greater than 90%.

Turning to `C[C@@H]1O[C@@H](Oc2cc(O)c3c(=O)c(O)c(-c4ccc(O)cc4)oc3c2O)[C@H](O)[C@H](O)[C@H]1O` [Rhodionin], under setting [3], the activity at 1 h, 1 μM was greater than 90%.

For the compound `O=c1c2ccccc2nc2n1CCc1c-2[nH]c2ccccc12` [Rutaecarpine], the activity at 1 h, 1 μM under setting [3] is greater than 90%.

Regarding `C[C@@H]1O[C@@H](OC[C@H]2O[C@@H](Oc3c(-c4ccc(O)c(O)c4)oc4cc(O)cc(O)c4c3=O)[C@H](O)[C@@H](O)[C@@H]2O)[C@H](O)[C@H](O)[C@H]1O` [Rutin], the activity at 1 h, 1 μM under setting [3] was greater than 90%.

`C[C@H]1O[C@@H](O[C@H]2CC[C@@]3(C)[C@@H](CC[C@]4(C)[C@@H]3C=C[C@]35OC[C@@]6(CCC(C)(C)C[C@H]63)[C@@H](O)C[C@]54C)[C@]2(C)CO)[C@H](O)[C@@H](O[C@@H]2O[C@H](CO)[C@@H](O)[C@H](O)[C@H]2O)[C@H]1O` [Saikosaponin A]: the activity at 1 h, 1 μM under setting [3] was greater than 90%.

On to `OC[C@H]1O[C@@H](OCCc2ccc(O)cc2)[C@H](O)[C@@H](O)[C@@H]1O` [Salidroside], for which, under setting [3], the activity at 1 h, 1 μM is greater than 90%.

On to `C[C@H]1CC[C@@]2(OC1)O[C@H]1C[C@H]3[C@@H]4CC[C@@H]5C[C@@H](O)CC[C@]5(C)[C@H]4CC[C@]3(C)[C@H]1[C@@H]2C` [Sarsasapogenin], for which the activity under setting [1] was greater than 90%.

For `COc1cc2c(c(OC)c1OC)-c1c(cc(OC)c(OC)c1OC)C[C@](C)(O)[C@@H](C)C2` [Schizandrin], the activity at 1 h, 1 μM under setting [2] was greater than 90%.

Turning to `CN1[C@@H]2C[C@@H](OC(=O)[C@H](CO)c3ccccc3)C[C@H]1[C@@H]1O[C@@H]12` [Scopolamine Hydrobromide], the activity (recombinant enzyme, pH 7.4) was greater than 90%.

For `COc1cc2ccc(=O)oc2cc1O` [Scopoletin], under setting [2], the activity at 1 h, 1 μM was greater than 90%.

As to `O=C(O)[C@H]1O[C@@H](Oc2cc3oc(-c4ccc(O)cc4)cc(=O)c3c(O)c2O)[C@H](O)[C@@H](O)[C@@H]1O` [Scutellarin], the activity at 1 h, 1 μM under setting [2] was greater than 90%.

As to `c1cc2c(cc1[C@H]1OC[C@H]3[C@@H]1CO[C@@H]3c1ccc3c(c1)OCO3)OCO2` [Sesamin], under setting [1], the activity was greater than 90%.

Take `COc1cc(C2Oc3cc([C@H]4Oc5cc(O)cc(O)c5C(=O)[C@@H]4O)ccc3OC2CO)ccc1O` (some centres unmarked) [Silibinin]: the activity at 1 h, 1 μM under setting [3] was greater than 90%.

`COc1cc(/C=C/C(=O)OCC[N+](C)(C)C)cc(OC)c1O` [Sinapine]: where the note is “recombinant enzyme”, the “% of Control Indication Activity (Mean)” value is greater than 90.

As to `COC1=C[C@@H]2[C@@H]3Cc4ccc(OC)c(O)c4[C@]2(CCN3C)CC1=O` [Sinomenine], the activity (recombinant enzyme, pH 7.4) is greater than 90%.

Turning to `O=c1c(-c2ccc(O[C@@H]3O[C@H](CO)[C@@H](O)[C@H](O)[C@H]3O)cc2)coc2cc(O)cc(O)c12` [Sophoricoside], the activity at 1 h, 1 μM under setting [2] is greater than 90%.

`O=C1C[C@@H]2OCC=C3CN4CC[C@]56c7ccccc7N1[C@H]5[C@H]2[C@H]3C[C@H]46` [Strychnine]: the activity at 1 h, 1 μM under setting [1] was greater than 90%.

As for `CNCC(O)c1ccc(O)cc1` (centres unmarked) [Synephrine], under setting [3], the activity at 1 h, 1 μM is greater than 90%.

In the case of `COc1cc(/C=C/CO)cc(OC)c1O[C@@H]1O[C@H](CO)[C@@H](O)[C@H](O)[C@H]1O` [Syringin], the activity at 1 h, 1 μM under setting [3] is greater than 90%.

Regarding `Cc1c(O)c(C)c2oc(-c3ccc(O)cc3)cc(=O)c2c1O` [Syzalterin], the “% of Control Indication Activity (Mean)” value under setting [4] was greater than 90%.

As to `Cc1coc2c1C(=O)C(=O)c1c-2ccc2c1CCCC2(C)C` [Tanshinone IIA], under setting [2], the activity at 1 h, 1 μM came out at 28.3%.

With `COc1c(O[C@@H]2O[C@H](CO)[C@@H](O)[C@H](O)[C@H]2O)cc2occ(-c3ccc(O)cc3)c(=O)c2c1O` [Tectoridin], under setting [2], the activity at 1 h, 1 μM is greater than 90%.

For the compound `COc1cc2c(cc1OC)[C@@H]1Cc3ccc(OC)c(OC)c3CN1CC2` [Tetrahydropalmatine], under setting [2], the activity at 1 h, 1 μM was greater than 90%.

For `COc1ccc2cc1Oc1ccc(cc1)C[C@H]1c3cc(c(OC)cc3CCN1C)Oc1c(OC)c(OC)cc3c1[C@H](C2)N(C)CC3` [Tetrandrine], the activity at 1 h, 1 μM under setting [3] is greater than 90%.

For the compound `Cc1ccc(C(C)C)c(O)c1` [Thymol], the activity at 1 h, 1 μM under setting [2] is greater than 90%.

For `COc1cc(-c2oc3cc(O)cc(O)c3c(=O)c2O[C@@H]2O[C@H](CO[C@@H]3O[C@@H](C)[C@H](O)[C@@H](O)[C@H]3O)[C@@H](O)[C@H](O)[C@H]2O[C@@H]2O[C@@H](C)[C@H](O)[C@@H](O)[C@H]2O)ccc1O` [Typhaneoside], under setting [4], the “% of Control Indication Activity (Mean)” value is on record as greater than 90%.

In the case of `COc1cc(C(=O)O)ccc1O` [Vanillic acid], the activity at 1 h, 1 μM under setting [3] is greater than 90%.

For `COc1ccc(-c2oc3cc(OC)c(OC)c(O)c3c(=O)c2OC)cc1O` [Vitexicarpin], the “% of Control Indication Activity (Mean)” value under setting [4] is recorded as greater than 90%.

For the compound `C[C@@H]1O[C@@H](O[C@@H]2[C@@H](O)[C@H](O)[C@@H](CO)O[C@H]2c2c(O)cc(O)c3c(=O)cc(-c4ccc(O)cc4)oc23)[C@H](O)[C@H](O)[C@H]1O` [Vitexin rhamnoside], the “% of Control Indication Activity (Mean)” value under setting [4] was greater than 90%.

`O=c1cc(-c2ccc(O)cc2)oc2c([C@@H]3O[C@H](CO)[C@@H](O)[C@H](O)[C@H]3O)c(O)cc(O)c12` [Vitexin]: under setting [2], the activity at 1 h, 1 μM is greater than 90%.

For the compound `COc1c(O)cc(O)c2c(=O)cc(-c3ccccc3)oc12` [Wogonin], under setting [2], the activity at 1 h, 1 μM turned out to be 74.6%.

Take `COc1cc(O)c2c(=O)c(O[C@@H]3O[C@H](CO)[C@H](O)[C@H](O)[C@H]3O)c(-c3ccc(O)c(O)c3)oc2c1` [zhang 83, rhamnetin 3-O-β-D-galactopyranoside]: the activity at 1 h, 1 μM under setting [5] was greater than 90%.

For `COc1cc(O)c2c(=O)c(O[C@@H]3O[C@H](CO)[C@@H](O)[C@H](O)[C@H]3O)c(-c3ccc(O)c(O)c3)oc2c1` [zhang 84, rhamnetin 3-O-β-D-glucopyranoside], the activity at 1 h, 1 μM under setting [5] was greater than 90%.

With `CC(C)=CCC/C(C)=C/Cc1c(O)cc(O)c2c(=O)c3c(O)c4c(cc3oc12)OCO4` [zhang 89, 1,6,8-trihydroxy-2,3-methylenedioxy-5-geranylxanthone], under setting [5], the activity at 1 h, 1 μM was greater than 90%.

Take `O=c1c(O[C@@H]2OC[C@@H](O)[C@@H](O)[C@@H]2O)c(-c2ccc(O)c(O)c2)oc2cc(O)cc(O)c12` [zhang 205, quercetin-3-O-β-D-arabinopyranoside]: under setting [5], the activity at 1 h, 1 μM was greater than 90%.

Turning to `O=c1c(OC2OC(CO)C(O)C2O)c(-c2ccc(O)c(O)c2)oc2cc(O)cc(O)c12` [zhang 206, quercetin-3-O-α-D-arabinofuranose], the activity at 1 h, 1 μM under setting [5] was greater than 90%.

With `COc1cc(C2Oc3c(ccc4ccc(=O)oc34)O[C@H]2CO)ccc1O` (some centres unmarked) [zhang 271, 5′-demethoxy Daphneticin], under setting [5], the activity at 1 h, 1 μM was greater than 90%.

`COc1cc(O)c2c(=O)cc(-c3ccc(O)c(O)c3)oc2c1` [zhang 272, 3′-hydroxy-Genkwanin]: under setting [3], the activity at 1 h, 1 μM was less than 90%.

As to `COc1cc(C[C@H]2COC(=O)[C@@H]2Cc2ccc(O)c(OC)c2)ccc1O` [zhang 284, (−)-Matairesinol], the “inhibitory activity to CYP1A2 (10% or greater inhibition at 1 μM)” value (listed as 284) is reported as “found to have inhibition of CYP1A2 activity; also recorded: confirmed to have inhibitory activities to CYP1A2”. Further, under setting [5], the activity at 1 h, 1 μM was less than 90%.

Take `O=c1ccc2ccc(Oc3cc4cc(O)c(O)cc4oc3=O)cc2o1` [zhang 300, Edgeworthin]: the “inhibitory activity to CYP1A2 (10% or greater inhibition at 1 μM)” value is recorded as “found to have inhibition of CYP1A2 activity; also recorded: confirmed to have inhibitory activities to CYP1A2”. In addition, under setting [5], the activity at 1 h, 1 μM was less than 90%.

Turning to `COc1cc(C[C@H]2COC(=O)[C@@H]2Cc2ccc(O)c(OC)c2)ccc1O` [zhang 616, (+)-Matairesinol], the “inhibitory activity to CYP1A2 (10% or greater inhibition at 1 μM)” value (listed as 616) is on record as “found to have inhibition of CYP1A2 activity; also recorded: confirmed to have inhibitory activities to CYP1A2”.

In the case of `OC[C@H]1O[C@@H](Oc2cc(O)cc(/C=C/c3ccc(O)cc3)c2)[C@H](O)[C@@H](O)[C@@H]1O` [zhang 713, Piceid], under “1 μM test compound, 25 μM phenacetin, average of duplicate determinations”, the “% of Control Indication Activity” value is recorded as greater than 90%.

In the case of `COc1ccc(-c2oc3cc(O)cc(O)c3c(=O)c2OC)cc1OC` [zhang 759, 3,3′,4′-Tri-Me ether-3,3′,4′,5,7-Pentahydroxyflavone], under setting [5], the activity at 1 h, 1 μM is greater than 90%.

As for `COc1cc(-c2oc3cc(O)c(OC)c(O)c3c(=O)c2O)ccc1O` [zhang 817, Spinacetin], the “inhibitory activity to CYP1A2 (10% or greater inhibition at 1 μM)” value is given as “found to have inhibition of CYP1A2 activity; also recorded: confirmed to have inhibitory activities to CYP1A2”. For the same compound, the activity at 1 h, 1 μM under setting [5] was less than 90%.

Regarding `C[C@@H]1O[C@@H](Oc2c(-c3ccc(O)cc3)oc3cc(O)cc(O)c3c2=O)[C@H](O)[C@H](O)[C@H]1O` [zhang 911, Kaempferol-3-O-α-L-rhamnopyranoside], the activity at 1 h, 1 μM under setting [3] is greater than 90%.

Consider Astragaloside, for which the “% of Control Indication Activity (Mean)” value under setting [4] was greater than 90%.

The record behind these values is paper PMC3116189, “Novel Natural Inhibitors of CYP1A2 Identified by in Silico and in Vitro Screening” (International Journal of Molecular Sciences, 2011).
